Five molecules from paper PMC6617451, “Dual Kit/Aur Inhibitors as Chemosensitizing Agents for the Treatment of Melanoma: Design, Synthesis, Docking Studies and Functional Investigation” (Scientific Reports, 2019) can be followed below.

Values joined by “and” are separate entries in the source; they are usually repeats but may differ in a detail not shown here. Equal entries are not always repeated.

One test addresses T1, AurA (Homo sapiens, UniProt O14965).
T1 construct: purchased ThermoFisher Scientific
T1 sequence (O14965 1-403): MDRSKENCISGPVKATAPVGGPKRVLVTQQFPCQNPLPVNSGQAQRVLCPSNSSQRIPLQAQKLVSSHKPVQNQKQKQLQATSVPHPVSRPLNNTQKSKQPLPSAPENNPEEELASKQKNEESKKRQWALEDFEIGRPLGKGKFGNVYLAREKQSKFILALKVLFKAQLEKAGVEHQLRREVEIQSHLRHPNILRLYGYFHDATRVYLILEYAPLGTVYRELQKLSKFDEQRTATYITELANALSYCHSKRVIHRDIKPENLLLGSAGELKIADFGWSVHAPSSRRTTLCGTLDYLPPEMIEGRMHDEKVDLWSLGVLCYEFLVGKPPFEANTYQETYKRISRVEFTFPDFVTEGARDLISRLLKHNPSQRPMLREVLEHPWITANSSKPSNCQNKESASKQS
The test is described as follows: Protein kinase inhibitory assay, AurA. It counts as biochemical. To be noted: 10 μM test compound.

The target of a further test is T2, c-Kit phosphorylation (Homo sapiens, UniProt P10721).
T2 construct: endogenous in cells; host or cells: WM266-4 and A2058 human melanoma cells
T2 sequence (P10721 26-976): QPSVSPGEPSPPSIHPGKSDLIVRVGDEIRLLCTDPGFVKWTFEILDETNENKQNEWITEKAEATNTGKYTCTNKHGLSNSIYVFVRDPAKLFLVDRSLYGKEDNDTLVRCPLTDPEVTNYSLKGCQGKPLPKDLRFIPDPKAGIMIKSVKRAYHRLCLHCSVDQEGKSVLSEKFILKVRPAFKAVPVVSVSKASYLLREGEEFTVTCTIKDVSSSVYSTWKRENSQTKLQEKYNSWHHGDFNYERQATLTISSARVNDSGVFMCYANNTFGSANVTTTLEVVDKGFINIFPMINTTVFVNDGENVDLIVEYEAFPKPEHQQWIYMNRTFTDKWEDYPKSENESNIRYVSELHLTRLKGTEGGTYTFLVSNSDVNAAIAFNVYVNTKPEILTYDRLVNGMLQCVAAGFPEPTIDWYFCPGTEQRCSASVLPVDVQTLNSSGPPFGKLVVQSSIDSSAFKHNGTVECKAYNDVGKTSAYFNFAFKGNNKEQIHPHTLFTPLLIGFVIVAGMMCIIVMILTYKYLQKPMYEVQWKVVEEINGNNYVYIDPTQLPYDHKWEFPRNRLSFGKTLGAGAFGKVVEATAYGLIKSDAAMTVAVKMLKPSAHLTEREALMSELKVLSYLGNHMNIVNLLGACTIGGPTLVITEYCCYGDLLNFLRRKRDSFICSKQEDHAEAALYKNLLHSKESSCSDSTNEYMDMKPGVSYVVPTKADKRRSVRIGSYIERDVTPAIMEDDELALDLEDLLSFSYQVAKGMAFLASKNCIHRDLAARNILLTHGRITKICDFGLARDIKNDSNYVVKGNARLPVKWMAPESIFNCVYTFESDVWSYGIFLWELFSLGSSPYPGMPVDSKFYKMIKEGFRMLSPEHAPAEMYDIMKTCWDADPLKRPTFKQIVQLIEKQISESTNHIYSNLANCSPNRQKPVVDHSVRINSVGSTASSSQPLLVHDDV
The test can be described thus: c-Kit phosphorylation ELISA assay in melanoma cells. The test is classed as cell-based. Conditions: WM266-4 and A2058 cells, 6a 10 μM, 72 h, vs vehicle-treated. The procedure: (§1) WM266-4 and A2058 cells (5 × 10^4 cells/well) were treated for 72 h with compound 6a (10 μM) or with vehicle alone. To measure phospho c-Kit and phospho AurB, at the end of the experiment, the cells were harvested and immediately frozen with liquid nitrogen. Cells were then lysed and the total protein was measured. In each sample, an equal amount of proteins was then assayed for human c-Kit and AurB phosporylation by the Human Phospho-CD117/c-kit ELISA Kit (Assaysolution; Woburn, MA, USA) and the AurB (Phospho-Thr232) ELISA Kit (Aviva System Biology; San Diego, CA, USA) and normalized by total protein c-Kit and AurB concentration measured by c-Kit and AurB ELISA kits, respectively. The optical density was determined using the microplate reader Multiskan Spectrum set to 450 nm. All experiments were repeated, independently, six times with at least nine samples for each concentration. The data were expressed as the ratio of phosphorylated c-Kit or AurB/total c-Kit or AurB.

The next test deals with A2058 cell line. The test can be described thus: Proliferation assay, A2058 melanoma cells (single agents and combination, Chou-Talalay). It counts as cell-based, human. Conditions: for Dose Reduction Index (DRI) 6a + vemurafenib: DRI of each drug in the combination. How it is done: (§2) Compound 6a, merging the best inhibitory profile against the target c-Kit/AurB kinases, was tested on the human A2058 (American Type Culture Collection, Manassas, USA) and WM266-4 (European Collection of Authenticated Cell Cultures, Salisbury, UK) cell lines, chosen as representative of BRAF-mutated melanoma cell lines, to investigate its anti-proliferative efficacy. […]. Vemurafenib, the BRAF V600E inhibitor currently used for the treatment of inoperable, metastatic melanoma, was used as the reference compound. […] The level of possible interaction between the two kinase inhibitors, synergistic, additive or antagonist in nature, was determined by the method of Chou-Talaly[38] and quantitated through the combination index (CI), calculated exploiting the following multiple drug-effect Eq. (1)1 CI=[(D)1/(Dx)1]+[(D)2/(Dx)2] and referred to as synergism, additive effect and antagonism when CI < 1, CI = 1 and CI > 1, respectively.
(§3) The Dose Reduction Index (DRI) was calculated as well, to assess the theoretical magnitude of concentration reduction allowed for the two drugs when given in synergistic combination in vitro to achieve the same effect as that obtained with the concentration of each single agent. DRI was calculated by the following Eq. (2):2 (DRI)=(Dx)/(D)
(§4) Test compounds 6a and vemurafenib were dissolved in a stock solution of 10 mM in 100% dimethylsulfoxide (DMSO) for in vitro studies. DMSO concentration in the control’s media was the same used to make up the highest concentration of test compounds in growth media for the same experiment. In vitro chemosensitivity was tested on melanoma WM266-4 and A2058 cell lines. Cells were grown in EMEM and DMEM media, respectively, plated in sterile 24-well plastic plates and treated for 72 h (using 10^3 cells/well in 1 mL of medium) with added 6a (range of 1–100 μM), or vemurafenib (0.0001–100 μM) alone. The synergistic effect between 6a and vemurafenib was calculated with the method of Chou-Talaly[38] based on the multiple drug-effect equation and quantitated by the combination index (CI) and the dose reduction index (DRI), where CI < 1 and DRI > 1 indicate synergism. At the end of the experiment, cells were harvested with trypsin/EDTA, and viable cells were quantified using the automatic cell counter ADAM MC Digital B (Twin Helix, Milano, Italy). The data are presented as the percentage of vehicle-treated cells. […] All experiments were repeated independently three times with at least nine samples for each concentration.

Another test concerns WM266-4 cell line. The test can be described thus: Proliferation assay, WM266-4 melanoma cells (single agents and combination, Chou-Talalay). Conditions: for Dose Reduction Index (DRI) 6a + vemurafenib: DRI of each drug in the combination. The test is classed as cell-based, human. The procedure: as §2, §3, §4
A further test has as its target T3, AurB phosphorylation (Homo sapiens, UniProt Q96GD4).
T3 construct: endogenous in cells; host or cells: WM266-4 and A2058 human melanoma cells
The test is described as follows: AurB phosphorylation (Phospho-Thr232) ELISA assay in melanoma cells. Conditions: WM266-4 and A2058 cells, 6a 10 μM, 72 h, vs vehicle-treated. It counts as cell-based. The procedure:
as §1

The target of another test is T4, AurC (Homo sapiens, UniProt Q9UQB9).
T4 construct: purchased ThermoFisher Scientific
T4 sequence (Q9UQB9 1-309): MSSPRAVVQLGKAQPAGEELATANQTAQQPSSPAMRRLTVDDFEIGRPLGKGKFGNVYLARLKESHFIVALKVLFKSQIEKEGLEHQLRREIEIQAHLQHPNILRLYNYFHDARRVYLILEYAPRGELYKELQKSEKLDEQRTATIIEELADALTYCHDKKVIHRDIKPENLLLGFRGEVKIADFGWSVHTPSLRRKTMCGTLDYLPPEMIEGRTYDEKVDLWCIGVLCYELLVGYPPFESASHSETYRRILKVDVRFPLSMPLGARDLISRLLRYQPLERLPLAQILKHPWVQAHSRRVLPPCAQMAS
The test is described as follows: Protein kinase inhibitory assay, AurC. The test is classed as biochemical. Conditions: 10 μM test compound. The procedure:
(§5) Cell culture media EMEM and DMEM, fetal bovine serum (FBS), L-glutamine, and antibiotics were from Sigma-Aldrich St. Louis, MO, USA). Vemurafenib was purchased from Selleckchem (Munich, Germany). Human recombinant protein kinases and Protein kinase assay kits were from ThermoFisher Scientific (MA, US). Plastics were supplied by Sarstedt (Verona, Italy).
(§6) Inhibitory assays were performed in accordance with a previously reported procedure, standardized for RET and VEGFR2[28],[41]. Test compounds were dissolved in 100% DMSO and diluted to the appropriate concentrations with the reaction buffer, provided by the kit. […] The inhibitory effect of the novel compounds was routinely estimated at 10 μM concentration.

The target of a further test is T5, AurB (Homo sapiens, UniProt Q96GD4).
T5 construct: purchased ThermoFisher Scientific
T5 sequence (Q96GD4 whole entry): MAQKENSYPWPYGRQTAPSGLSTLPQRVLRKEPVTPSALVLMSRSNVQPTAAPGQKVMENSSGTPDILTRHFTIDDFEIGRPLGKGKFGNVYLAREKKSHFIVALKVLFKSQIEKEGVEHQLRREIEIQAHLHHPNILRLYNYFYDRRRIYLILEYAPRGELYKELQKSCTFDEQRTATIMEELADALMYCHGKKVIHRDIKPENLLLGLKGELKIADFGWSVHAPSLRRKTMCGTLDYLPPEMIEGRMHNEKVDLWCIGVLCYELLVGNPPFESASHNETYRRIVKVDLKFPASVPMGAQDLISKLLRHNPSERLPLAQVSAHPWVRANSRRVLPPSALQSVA
The test is described as follows: Protein kinase inhibitory assay, AurB. It counts as biochemical. To be noted: 10 μM test compound. How it is done: as §5, §6

[1] abbreviates: A2058, affected cell fraction 75%.
Where [2] appears, read: A2058, affected cell fraction 85%.
[3] abbreviates: WM266-4, affected cell fraction 75%.
[4] abbreviates: WM266-4, affected cell fraction 85%.
Setting [5] is: WM266-4, affected cell fraction 95%.

T3 sequence (Q96GD4 whole entry): as above

`O=C(Nc1ccc(SCc2n[nH]c(-c3ccc(Br)cc3)n2)cc1)Nc1ccc(C(F)(F)F)cc1` [Compound 6g]: at AurA, the “percentage of kinase inhibition, AurA” value was “no inhibitory activity”.
`O=C(Nc1ccccc1)Nc1ccc(SCc2n[nH]c(-c3ccccc3)n2)cc1` [Compound 6a, 1-phenyl-3-(4-(((3-phenyl-1H-1,2,4-triazol-5-yl)methyl)thio)phenyl)urea]: the “inhibition of c-Kit phosphorylation (ratio phosphorylated c-Kit/total c-Kit)” value at c-Kit phosphorylation is reported as “significant inhibition of c-Kit phosphorylation”. Besides, the “Dose Reduction Index (DRI) 6a + vemurafenib” value was 494.1 in the test with A2058 cell line (setting [1]); 429.0 with A2058 cell line (setting [2]); 374.9 in the test on WM266-4 cell line (setting [3]); 272.1 with WM266-4 cell line (setting [4]); 150 and 147.9 in the test with WM266-4 cell line (setting [5]). Besides, the IC50 in the test on A2058 cell line (Homo sapiens, A2058, BRAF V600D, 72 h exposure, read-out: IC50 antiproliferative activity) was found to be 11.4 µM; with WM266-4 cell line (Homo sapiens, WM 266-4, WM266-4, BRAF V600E, 72 h exposure, read-out: IC50 antiproliferative activity) it was 9.65 µM. Besides, the “quantity of the phosphorylated form of AurB (ratio phosphorylated AurB/total AurB)” value on AurB phosphorylation was “weakly reduced”. The “percentage of kinase inhibition, AurA” value on AurA is given as “most active of the synthesized series”. The “percentage of kinase inhibition, AurC” value at AurC is “most effective of the whole series”.
Turning to `CCCS(=O)(=O)Nc1ccc(F)c(C(=O)c2c[nH]c3ncc(-c4ccc(Cl)cc4)cc23)c1F` [vemurafenib], the “Dose Reduction Index (DRI) 6a + vemurafenib” value in the test with A2058 cell line (setting [1]) amounted to 21.8; in the test with A2058 cell line (setting [2]), 22.2; in the test with A2058 cell line (A2058, affected cell fraction 95%) it was 22.9; with WM266-4 cell line (setting [3]), 1.1; with WM266-4 cell line (setting [4]), 1.2; in the test with WM266-4 cell line (setting [5]) it was 1.4.
Consider `COc1ccc(NC(=O)Nc2ccc(SCc3n[nH]c(-c4ccc(Br)cc4)n3)cc2)cc1OC` [Compound 6h], for which the “percentage of kinase inhibition, AurB” value on AurB was “no inhibitory activity”.
As for `CN(C)c1ccc(NC(=O)Nc2ccc(SCc3n[nH]c(-c4ccc(Cl)cc4)n3)cc2)cc1` [Compound 6e], the “percentage of kinase inhibition, AurA” value on AurA was “no inhibitory activity”. Besides, at AurB, the “percentage of kinase inhibition, AurB” value was “no inhibitory activity”.
